Target: T1, DLK (Homo sapiens, UniProt Q12852)
T1 sequence (Q12852 1-520): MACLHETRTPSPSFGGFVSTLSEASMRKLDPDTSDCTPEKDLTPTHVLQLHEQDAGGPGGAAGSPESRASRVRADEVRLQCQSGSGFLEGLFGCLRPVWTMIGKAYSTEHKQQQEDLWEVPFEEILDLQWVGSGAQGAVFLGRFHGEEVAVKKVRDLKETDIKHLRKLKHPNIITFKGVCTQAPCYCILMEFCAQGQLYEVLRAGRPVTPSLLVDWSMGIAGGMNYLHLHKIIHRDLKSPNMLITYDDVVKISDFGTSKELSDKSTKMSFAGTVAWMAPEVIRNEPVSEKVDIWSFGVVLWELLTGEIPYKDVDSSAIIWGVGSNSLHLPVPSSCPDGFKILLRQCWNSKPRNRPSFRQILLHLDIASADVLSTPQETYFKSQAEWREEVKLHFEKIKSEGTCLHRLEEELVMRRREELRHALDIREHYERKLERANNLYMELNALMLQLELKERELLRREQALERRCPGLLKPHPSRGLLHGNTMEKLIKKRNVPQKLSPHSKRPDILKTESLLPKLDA
Conditions: read-out: DLK (Ki) μM; TR-FRET; 5 nM GST-tagged DLK (catalytic domain aa 1-520), 40 nM HIS-MKK4 K131M substrate, 30 μM ATP, 60 minutes

Row | SMILES | Ki
1 | Cc1c[nH]c2ncc(-c3cc(C4CCN(C5COC5)CC4)n(C(C)C)n3)cc12 [Compound 69, 5-(1-isopropyl-5-(1-(oxetan-3-yl)pipe-ridin-4-yl)-1H-pyrazol-3-yl)-3-meth-yl-1H-pyrrolo[2,3-b]pyridine] | 0.0037 µM
2 | CC(C)n1nc(-c2cnc3[nH]cc(C(F)(F)F)c3c2)cc1C1CCN(C2COC2)CC1 [Compound 70, 5-(1-isopropyl-5-(1-(oxetan-3-yl)pipe-ridin-4-yl)-1H-pyrazol-3-yl)-3-(tri-fluoromethyl)-1H-pyrrolo[2,3-b]pyri-dine] | 0.0023 µM
3 | Nc1ncc(-c2cc(C3CCN(C4COC4)CC3)n(C3CCCC3)n2)cc1Cl [Compound 71, 3-chloro-5-(1-cyclopentyl-5-(1-(oxetan-3-yl)piperidin-4-yl)-1H-pyrazol-3-yl)pyridin-2-amine] | 0.27 µM
4 | CC(C)n1nc(-c2cnc3[nH]cc(Cl)c3c2)cc1C1CCN(C2COC2)CC1 [Compound 72, 3-chloro-5-(1-isopropyl-5-(1-(oxetan-3-yl)piperidin-4-yl)-1H-pyrazol-3-yl)-1H-pyrrolo[2,3-b]pyridine] | 0.015 µM
5 | CC(C)n1nc(-c2cnc3[nH]cc(F)c3c2)cc1C1CCN(C2COC2)CC1 [Compound 75, 3-fluoro-5-(1-isopropyl-5-(1-(oxetan-3-yl)piperidin-4-yl)-1H-pyrazol-3-yl)-1H-pyrrolo[2,3-b]pyridine] | 0.096 µM
6 | CC(C)n1nc(-c2cnc(N)c(C(F)(F)F)c2)cc1C1CCN(C2COC2)CC1 [Compound 76, 5-(1-isopropyl-5-(1-(oxetan-3-yl)piperidin-4-yl)-1H-pyrazol-3-yl)-3-(trifluoromethyl)pyridin-2-amine] | 0.15 µM
7 | CC(C)n1nc(-c2cnc3[nH]cc(C#N)c3c2)cc1C1CCN(C2COC2)CC1 [Compound 77, 5-(1-isopropyl-5-(1-(oxetan-3-yl)pipe-ridin-4-yl)-1H-pyrazol-3-yl)-1H-pyrro-lo[2,3-b]pyridine-3-carbonitrile] | 0.12 µM
8 | Nc1ncc(-c2cc(C3CCN(C4COC4)CC3)n(C3CCCC3)n2)cc1C(F)(F)F [Compound 81, 5-(1-cyclopentyl-5-(1-(oxetan-3-yl)piperidin-4-yl)-1H-pyrazol-3-yl)-3-(trifluoromethyl)pyridin-2-amine] | 0.084 µM
9 | CCOc1cc(-c2cc(C3CCN(C4COC4)CC3)n(C(C)C)n2)cnc1N [Compound 83, 3-ethoxy-5-(1-isopropyl-5-(1-(oxetan-3-yl)piperidin-4-yl)-1H-pyrazol-3-yl)pyridin-2-amine] | 0.39 µM
10 | CC(C)Oc1cc(-c2cc(C3CCN(C4COC4)CC3)n(C(C)C)n2)cnc1N [Compound 84, 3-isopropoxy-5-(1-isopropyl-5-(1-(oxe-tan-3-yl)piperidin-4-yl)-1H-pyrazol-3-yl)pyridin-2-amine] | 0.26 µM
11 | CCOc1cc(-c2cc(C3CCN(C4COC4)CC3)n(C3CCC(F)(F)C3)n2)cnc1N (stereo not shown) [Compound 85, 5-(1-(3,3-difluorocyclopentyl)-5-(1-(oxetan-3-yl)piperidin-4-yl)-1H-pyra-zol-3-yl)-3-ethoxypyridin-2-amine] | 0.99 µM
12 | CC(C)Oc1cc(-c2cc(C3CCN(C4COC4)CC3)n(C3CCC(F)(F)C3)n2)cnc1N (stereo not shown) [Compound 86, 5-(1-(3,3-difluorocyclopentyl)-5-(1-(oxetan-3-yl)piperidin-4-yl)-1H-pyra-zol-3-yl)-3-isopropoxypyridin-2-amine] | 0.91 µM
13 | Nc1ncc(-c2cc(C3CCN(C4COC4)CC3)n(C3CCC(F)(F)C3)n2)cc1OCC1CC1 (stereo not shown) [Compound 87, 3-(cyclopropylmethoxy)-5-(1-(3,3-di-fluorocyclopentyl)-5-(1-(oxetan-3-yl)piperidin-4-yl)-1H-pyrazol-3-yl)pyri-din-2-amine] | 0.64 µM
14 | COc1cc(-c2cc(C3CCN(C4COC4)CC3)n(C3CCCC3)n2)cnc1N [Compound 88, 5-(1-cyclopentyl-5-(1-(oxetan-3-yl)piperidin-4-yl)-1H-pyrazol-3-yl)-3-methoxypyridin-2-amine] | 0.26 µM
15 | COc1cc(-c2cc(C3CCN(C4COC4)CC3)n(C(C)C)n2)cnc1N [Compound 89, 5-(1-isopropyl-5-(1-(oxetan-3-yl)pipe-ridin-4-yl)-1H-pyrazol-3-yl)-3-meth-oxypyridin-2-amine] | 0.14 µM
16 | CC(C)Oc1cc(-c2cc(C3CCN(C4COC4)CC3)n(C3CCCC3)n2)cnc1N [Compound 90, 5-(1-cyclopentyl-5-(1-(oxetan-3-yl)piperidin-4-yl)-1H-pyrazol-3-yl)-3-iso-propoxypyridin-2-amine] | 0.12 µM
17 | CC(C)n1nc(-c2cnc(N)c(C#N)c2)cc1C1CCN(C2COC2)CC1 [Compound 92, 2-amino-5-(1-isopropyl-5-(1-(oxetan-3-yl)piperidin-4-yl)-1H-pyrazol-3-yl)nicotinonitrile] | 0.94 µM
18 | N#Cc1cc(-c2cc(C3CCN(C4COC4)CC3)n(C3CCCC3)n2)cnc1N [Compound 93, 2-amino-5-(1-cyclopentyl-5-(1-(oxetan-an-3-yl)piperidin-4-yl)-1H-pyrazol-3-yl)nicotinonitrile] | 0.17 µM
19 | CC(C)n1nc(-c2cnc3c(c2)C(C)(C)CN3)cc1C1CCN(C2COC2)CC1 [Compound 95, 5-(1-isopropyl-5-(1-(oxetan-3-yl)piperidin-4-yl)-1H-pyrazol-3-yl)-3,3-dimethyl-2,3-dihydro-1H-pyrrolo[2,3-b]pyridine] | 1.2 µM
20 | CC(C)n1nc(-c2cnc(N)c(C3CC3)c2)cc1C1CCN(C2COC2)CC1 [Compound 98, 3-cyclopropyl-5-(1-isopropyl-5-(1-(oxe-tan-3-yl)piperidin-4-yl)-1H-pyra-zol-3-yl)pyridin-2-amine] | 0.36 µM
21 | CC(C)n1nc(-c2cnc(N)c(OC(F)F)c2)cc1C1CCN(C2COC2)CC1 [Compound 99, 3-(difluoromethoxy)-5-(1-isopropyl-5-(1-(oxetan-3-yl)piperidin-4-yl)-1H-pyrazol-3-yl)pyridin-2-amine] | 0.069 µM

Continued, values first:

Row | Ki | SMILES
22 | 0.001 µM | CC(C)n1nc(-c2cnc3[nH]cc(C(F)(F)F)c3c2)cc1C1CCN(C2CCC2)CC1 [Compound 101, 5-(5-(1-cyclobutylpiperidin-4-yl)-1-iso-propyl-1H-pyrazol-3-yl)-3-(trifluoro-methyl)-1H-pyrrolo[2,3-b]pyridine]
23 | 0.034 µM | CC(C)n1nc(-c2cnc(N)c(C(F)(F)F)c2)cc1C1CCN(C2CCC2)CC1 [Compound 102, 5-(5-(1-cyclobutylpiperidin-4-yl)-1-isopropyl-1H-pyrazol-3-yl)-3-(trifluoromethyl)pyridin-2-amine]
24 | 0.096 µM | Nc1ncc(-c2cc([C@H]3[C@@H]4COC[C@@H]43)n(C3CCCC3)n2)cc1Cl [Compound 105, 5-(5-((1R,5S,6s)-3-oxabicyclo[3.1.0]hexan-6-yl)-1-cyclopentyl-1H-pyra-zol-3-yl)-3-chloropyridin-2-amine]
25 | 0.0024 µM | Nc1ncc(-c2cc([C@H]3[C@@H]4CNC[C@@H]43)n(CC(F)(F)F)n2)cc1C(F)(F)F [Compound 107, 5-(5-((1R,5S,6r)-3-azabicyclo[3.1.0]hexan-6-yl)-1-(2,2,2-trifluoroethyl)-1H-pyrazol-3-yl)-3-(trifluoromethyl) pyridin-2-amine]
26 | 0.0049 µM | CC(C)n1nc(-c2cnc(N)c(C(F)(F)F)c2)cc1[C@H]1[C@@H]2CN(S(C)(=O)=O)C[C@@H]21 [Compound 108, 5-(1-isopropyl-5-((1R,5S,6r)-3-(meth-ylsulfonyl)-3-azabicyclo[3.1.0]hex-an-6-yl)-1H-pyrazol-3-yl)-3-(trifluoro-methyl)pyridin-2-amine]
27 | 0.001 µM | CC(C)n1nc(-c2cnc(N)c(C(F)(F)F)c2)cc1[C@H]1[C@@H]2CN(CC(F)F)C[C@@H]21 [Compound 109, 5-(5-((1R,5S,6r)-3-(2,2-difluoroethyl)-3-azabicyclo[3.1.0]hexan-6-yl)-1-isopropyl-1H-pyrazol-3-yl)-3-(trifluoro-methyl)pyridin-2-amine]
28 | 0.0045 µM | CC(C)n1nc(-c2cnc(N)c(OC(F)F)c2)cc1[C@H]1[C@@H]2CN(CC(F)(F)F)C[C@@H]21 [Compound 110, 3-(difluoromethoxy)-5-(1-isopropyl-5-((1R,5S,6r)-3-(2,2,2-trifluoroethyl)-3-azabicyclo[3.1.0]hexan-6-yl)-1H-pyrazol-3-yl)pyridin-2-amine]
29 | 0.18 µM | Nc1ncc(-c2cc([C@H]3[C@@H]4CN(CC(F)(F)F)C[C@@H]43)n(C3COC3)n2)cc1Cl [Compound 111, 3-chloro-5-(1-(oxetan-3-yl)-5-((1R,5S, 6r)-3-(2,2,2-trifluoroethyl)-3-azabi-cyclo[3.1.0]hexan-6-yl)-1H-pyrazol-3-yl)pyridin-2-amine]
30 | 0.064 µM | N#Cc1cc(-c2cc([C@H]3[C@@H]4CN(CC(F)(F)F)C[C@@H]43)n(CC3CC3)n2)cnc1N [Compound 113, 2-amino-5-(1-(cyclopropylmethyl)-5-((1R,5S,6r)-3-(2,2,2-trifluoroethyl)-3-azabicyclo[3.1.0]hexan-6-yl)-1H-pyrazol-3-yl)nicotinonitrile]
31 | 0.96 µM | CC(C)n1nc(-c2cnc(N)c3cn[nH]c23)cc1[C@H]1[C@@H]2CN(CC(F)(F)F)C[C@@H]21 [Compound 114, 7-(1-isopropyl-5-((1R,5S,6r)-3-(2,2,2-trifluoroethyl)-3-azabicyclo[3.1.0]hexan-6-yl)-1H-pyrazol-3-yl)-1H-py-razolo[4,3-c]pyridin-4-amine]

Reference: patent US10028942B2 (priority 2013, dated 2018)
